In data set [1] the test system is Blumeria graminis f. sp. hordei. The experiment in a line: In vivo preventive test on Blumeria graminis (barley). The note with it: 500 ppm of active ingredient, evaluated 7 days after inoculation. The method, then: (§1) Solvent: 49 parts by weight of N,N-dimethylacetamide Emulsifier: 1 part by weight of alkylaryl polyglycol ether To produce a suitable preparation of active compound, 1 part by weight of active compound or active compound combination is mixed with the stated amounts of solvent and emulsifier, and the concentrate is diluted with water to the desired concentration. To test for preventive activity, young plants are sprayed with the preparation of active compound or active compound combination at the stated rate of application. After the spray coating has been dried, the plants are dusted with spores of Blumeria graminis f. sp. hordei. The plants are placed in the greenhouse at a temperature of approximately 18° C. and a relative atmospheric humidity of approximately 80% to promote the development of mildew pustules. The test is evaluated 7 days after the inoculation. 0% means an efficacy which corresponds to that of the untreated control, while an efficacy of 100% means that no disease is observed.

Data set [2] is described as follows: log P by HPLC on reversed-phase column (C 18), EEC Directive 79/831 Annex V.A8. The note with it: HPLC on reversed-phase column (C 18), 40° C., 0.1% aqueous formic acid and acetonitrile, linear gradient 10% to 90% acetonitrile. It counts as physicochemical. In outline: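 Compounds are eluted at 40° C using 0.1% aqueous formic acid and acetonitrile in a linear gradient from 10% to 90% acetonitrile. Unbranched alkan-2-ones bearing 3 to 16 carbons with known log P serve as calibrants. Each log P is interpolated linearly from retention times of the two bracketing alkanones.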

The subject of the next data set is Uromyces appendiculatus. As to the kind of experiment: In vivo preventive test on Uromyces appendiculatus (bean rust). Particulars: 100 ppm of active ingredient, evaluated 10 days after inoculation. The method, then: (§2) Solvent: 24.5 parts by weight of acetone • 24.5 parts by weight of N,N-dimethylacetamide Emulsifier: 1 part by weight of alkylaryl polyglycol ether To produce a suitable preparation of active compound, 1 part by weight of active compound is mixed with the stated amounts of solvent and emulsifier, and the concentrate is diluted with water to the desired concentration. To test for preventive activity, young plants are sprayed with the preparation of active compound at the stated rate of application. After the spray coating has dried on, the plants are inoculated with an aqueous spore suspension of the causal agent of bean rust (Uromyces appendiculatus) and then remain for 1 day in an incubation cabinet at approximately 20° C. and a relative atmospheric humidity of 100%. The plants are then placed in a greenhouse at approximately 21° C. and a relative atmospheric humidity of approximately 90%. The test is evaluated 10 days after the inoculation. 0% means an efficacy which corresponds to that of the untreated control, while an efficacy of 100% means that no disease is observed.

A further data set deals with Sphaerotheca fuliginea. The experiment in a line: In vivo preventive test on Sphaerotheca fuliginea (cucumber). Particulars: 500 ppm of active ingredient, evaluated 7 days after inoculation. In outline:
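Active compound in DMF with alkylarylpolyglycolether emulsifier, diluted in water and sprayed on young cucumber plants at the stated rate. One day later, plants inoculated with S. fuliginea spore suspension and kept at about 23 °C, 70% RH; efficacy scored 7 days post-inoculation, 0% = untreated, 100% = no disease.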

The subject of the next data set is Septoria tritici. The experiment in a line: In vivo preventive test on Septoria tritici (wheat). The note with it: 500 ppm of active ingredient, evaluated 21 days after inoculation. The method, then:
as §1, with “sprayed” for “dusted”, “a spore suspension” for “spores”, “Septoria tritici. The plants remain for 48 hours in an incubation cabinet at approximately 20° C. and a relative atmospheric humidity of approximately 100% and afterwards for 60 hours at approximately 15° C. in a translucent incubation cabinet at a relative atmospheric humidity of approximately 100%.” for “Blumeria graminis f. sp. hordei.”, “15°” for “18°”, “80%.” for “80% to promote the development of mildew pustules.”, “21” for “7”

The test system of another data set is Pyrenophora teres. As to the kind of experiment: In vivo preventive test on Pyrenophora teres (barley). The note with it: 500 ppm of active ingredient, evaluated 7-9 days after inoculation. In outline:
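Young barley plants sprayed with compound in DMF/alkylaryl polyglycol ether emulsion; inoculated with P. teres spores one day later. 48 h at 22 °C, 100% humidity, then greenhouse ~20 °C, ~80% humidity; efficacy scored 7-9 days post-inoculation, 0% = untreated, 100% = no disease.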

Another data set deals with Alternaria solani. As to the kind of experiment: In vivo preventive test on Alternaria solani (tomato). The note with it: 500 ppm of active ingredient, evaluated 7 days after inoculation. In outline: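 Young tomato plants were sprayed preventively with compound in DMF/alkylarylpolyglycolether diluted in water, then inoculated one day later with A. solani spores. Incubation was 1 day at about 22 °C and 100% RH, then about 20 °C and 96% RH. Efficacy was scored 7 days after inoculation (0% = untreated control, 100% = no disease).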

The subject of a further data set is Venturia inaequalis. As to the kind of experiment: In vivo preventive test on Venturia inaequalis (apple scab). The note with it: 100 ppm of active ingredient, evaluated 10 days after inoculation. As for the experimental part:
as §2, with “conidia” for “spore”, “apple scab (Venturia inaequalis)” for “bean rust (Uromyces appendiculatus)”

Data set [3] relates to Fusarium nivale (var. majus). The experiment in a line: In vivo preventive test on Fusarium nivale (wheat). The note with it: 500 ppm of active ingredient, evaluated 5 days after inoculation. The method, then:
Solvent: 49 parts by weight of N,N-dimethylacetamide Emulsifier: 1 part by weight of alkylaryl polyglycol ether To produce a suitable preparation of active compound, 1 part by weight of active compound or active compound combination is mixed with the stated amounts of solvent and emulsifier, and the concentrate is diluted with water to the desired concentration. To test for preventive activity, young plants are sprayed with the preparation of active compound or active compound combination at the stated rate of application. After the spray coating has been dried, the plants are slightly injured by using a sandblast and afterwards they are sprayed with a conidia suspension of Fusarium nivale (var. majus). The plants are placed in the greenhouse under a translucent incubation cabinet at a temperature of approximately 10° C. and a relative atmospheric humidity of approximately 100%. The test is evaluated 5 days after the inoculation. 0% means an efficacy which corresponds to that of the untreated control, while an efficacy of 100% means that no disease is observed.

The subject of a further data set is Puccinia triticina. As to the kind of experiment: In vivo preventive test on Puccinia triticina (wheat). Particulars: 500 ppm of active ingredient, evaluated 8 days after inoculation. The method, then: (§3) Solvent: 49 parts by weight of N,N-dimethylacetamide Emulsifier: 1 part by weight of alkylaryl polyglycol ether To produce a suitable preparation of active compound, 1 part by weight of active compound or active compound combination is mixed with the stated amounts of solvent and emulsifier, and the concentrate is diluted with water to the desired concentration. To test for preventive activity, young plants are sprayed with the preparation of active compound or active compound combination at the stated rate of application. After the spray coating has been dried, the plants are sprayed with a spore suspension of Puccinia triticina. The plants remain for 48 hours in an incubation cabinet at approximately 20° C. and a relative atmospheric humidity of approximately 100%. The plants are placed in the greenhouse at a temperature of approximately 20° C. and a relative atmospheric humidity of approximately 80%. The test is evaluated 8 days after the inoculation. 0% means an efficacy which corresponds to that of the untreated control, while an efficacy of 100% means that no disease is observed.

A further data set deals with Leptosphaeria nodorum. As to the kind of experiment: In vivo preventive test on Leptosphaeria nodorum (wheat). Particulars: 500 ppm of active ingredient, evaluated 8 days after inoculation. As for the experimental part:
as §3, with “suspension of Leptosphaeria nodorum. The plants” for “suspension of Puccinia triticina. The plants”, “of approximately 22° C. and” for “of approximately 20° C. and”

In a further data set the test system is Phakopsora pachyrhizi. The experiment in a line: In vivo protective test on Phakopsora pachyrhizi (soybeans). Particulars: 250 ppm of active ingredient, evaluated 11 days after inoculation.

In general, chromatographic logP refers to lipophilicity estimated from chromatographic retention. One may read the logP as a log measure of how a compound divides between an organic and an aqueous phase. A lower logP goes with a more hydrophilic compound.

For `Cc1ccccc1C1CCCCN1C(=O)c1c(C)nn(C)c1F` (stereo not drawn) [Example 1, (5-fluoro-1,3-dimethyl-1H-pyrazol-4-yl)[2-(2-methylphenyl)-piperidin-1-yl]methanone], the Efficacy is on record as 89% in data set [1]; 100% with Uromyces appendiculatus; 95% in the data set with Sphaerotheca fuliginea; 100% with Septoria tritici; 100% with Pyrenophora teres; 95% in the data set with Alternaria solani. The same compound registered an Efficacy in the data set with Venturia inaequalis of 99%. The compound further returned a chromatographic logP in data set [2] (reversed-phase HPLC column (C 18)) of 2.71.
On to `Cc1cc(C)cc(C2CCCCN2C(=O)c2c(C(F)F)nn(C)c2F)c1` (stereo not drawn) [Example 30], for which the Efficacy (in [1]; in data set [3]; with Sphaerotheca fuliginea; in the data set on Septoria tritici; in the data set with Puccinia triticina; with Pyrenophora teres) was 100% in each case. Further, the Efficacy in the data set with Leptosphaeria nodorum was determined as 90%; in the data set with Venturia inaequalis, 100%. The compound also came in with a logP in data set [2] of 3.71.
Consider `Cc1cc(C(=O)N2CCCCC2c2ccc(Cl)cc2)c(C)o1` (stereo not drawn) [Example 53], for which the Efficacy amounted to 70% in data set [1]; 100% in data set [3]; 90% in the data set on Septoria tritici; 71% in the data set with Puccinia triticina; 95% in the data set with Pyrenophora teres; 90% in the data set with Alternaria solani. In addition, the Efficacy with Leptosphaeria nodorum worked out at 78%. The same compound came in with a logP in data set [2] of 4.04.
As to `CCc1nn(C)c(F)c1C(=O)N1CCCCC1c1cc(OC)cc(OC)c1` (stereo not drawn) [Example 67], the lipophilicity (logP) in data set [2] stood at 2.84. In addition, the Efficacy was determined as 95% with Uromyces appendiculatus; 90% with Phakopsora pachyrhizi; 90% in the data set on Pyrenophora teres; 95% in the data set on Alternaria solani; 100% in the data set on Venturia inaequalis.
As to `Cc1nn(C)c(F)c1C(=O)N1CCCCC1c1cccc(Br)c1` (stereo not drawn) [Example 95], the Efficacy in data set [1] is on record as 100%; in [3], 100%; in the data set on Sphaerotheca fuliginea, 91%; in the data set with Septoria tritici, 100%; in the data set with Puccinia triticina, 71%; in the data set on Pyrenophora teres it was 95%. For the same compound, the Efficacy came to 100% with Alternaria solani and 89% with Leptosphaeria nodorum. For the same compound, in [2], the logP came out at 3.06.
`CCC(c1ccccc1Cl)C1CCCCN1C(=O)c1c(C(F)F)nn(C)c1F` (stereo not drawn) [Example 162]: the Efficacy in data set [1] turned out to be 94%; with Sphaerotheca fuliginea it was 100%; in the data set on Septoria tritici it was 100%; in the data set with Puccinia triticina, 100%; in the data set with Pyrenophora teres it was 100%; in the data set on Alternaria solani it was 100%. Besides, in the data set with Leptosphaeria nodorum, the Efficacy turned out to be 90%. In addition, the logP in [2] is listed as 4.13.
